Assay results reported in ChEMBL document CHEMBL1201861, “Genomics of Drug Sensitity in Cancer screening data, Wellcome Trust Sanger Institute”.

Key:
NCI-H596 = experiment: cells; type: functional, cell-based; details: Homo sapiens
Description: SANGER: Inhibition of human NCI-H596 cell growth in a cell viability assay.

PANC-03-27 = experiment: cells; type: functional, cell-based; details: Homo sapiens
Description: SANGER: Inhibition of human PANC-03-27 cell growth in a cell viability assay.

5637 = experiment: cells; type: functional, cell-based; details: Homo sapiens
Description: SANGER: Inhibition of human 5637 cell growth in a cell viability assay.

COR-L279 = experiment: SANGER: Inhibition of human COR-L279 cell growth in a cell viability assay.; type: functional, cell-based; details: Homo sapiens, COR-L279
HCC1395 = experiment: cells; type: functional, cell-based; details: Homo sapiens
Description: SANGER: Inhibition of human HCC1395 cell growth in a cell viability assay.

DMS-273 = experiment: cells; type: functional, cell-based; details: Homo sapiens
Description: SANGER: Inhibition of human DMS-273 cell growth in a cell viability assay.

AN3-CA = experiment: cells; type: functional, cell-based; details: Homo sapiens
Description: SANGER: Inhibition of human AN3-CA cell growth in a cell viability assay.

HGC-27 = experiment: cells; type: functional, cell-based; details: Homo sapiens
Description: SANGER: Inhibition of human HGC-27 cell growth in a cell viability assay.

NCI-H2122 = experiment: cells; type: functional, cell-based; details: Homo sapiens
Description: SANGER: Inhibition of human NCI-H2122 cell growth in a cell viability assay.

KOSC-2 = experiment: cells; type: functional, cell-based; details: Homo sapiens
Description: SANGER: Inhibition of human KOSC-2 cell growth in a cell viability assay.

G-361 = experiment: cells; type: functional, cell-based; details: Homo sapiens
NCCIT = experiment: SANGER: Inhibition of human NCCIT cell growth in a cell viability assay.; type: functional, cell-based; details: Homo sapiens, NCCIT
MC-IXC = experiment: cells; type: functional, cell-based; details: Homo sapiens
Description: SANGER: Inhibition of human MC-IXC cell growth in a cell viability assay.

AU565 = experiment: cells; type: functional, cell-based; details: Homo sapiens
Description: SANGER: Inhibition of human AU565 cell growth in a cell viability assay.

NUGC-3 = experiment: cells; type: functional, cell-based; details: Homo sapiens
Description: SANGER: Inhibition of human NUGC-3 cell growth in a cell viability assay.

SCC-25 = experiment: cells; type: functional, cell-based; details: Homo sapiens
Description: SANGER: Inhibition of human SCC-25 cell growth in a cell viability assay.

CP50-MEL-B = experiment: cells; type: functional, cell-based; details: Homo sapiens
Description: SANGER: Inhibition of human CP50-MEL-B cell growth in a cell viability assay.

PFSK-1 = experiment: cells; type: functional, cell-based; details: Homo sapiens
Description: SANGER: Inhibition of human PFSK-1 cell growth in a cell viability assay.

NCI-H2170 = experiment: cells; type: functional, cell-based; details: Homo sapiens
Description: SANGER: Inhibition of human NCI-H2170 cell growth in a cell viability assay.

NCI-H1623 = experiment: cells; type: functional, cell-based; details: Homo sapiens
Description: SANGER: Inhibition of human NCI-H1623 cell growth in a cell viability assay.

NCI-H2452 = experiment: cells; type: functional, cell-based; details: Homo sapiens
Description: SANGER: Inhibition of human NCI-H2452 cell growth in a cell viability assay.

OAW-28 = experiment: cells; type: functional, cell-based; details: Homo sapiens
Description: SANGER: Inhibition of human OAW-28 cell growth in a cell viability assay.

SW1710 = experiment: cells; type: functional, cell-based; details: Homo sapiens
Description: SANGER: Inhibition of human SW1710 cell growth in a cell viability assay.

SK-MEL3 = experiment: cells; type: functional, cell-based, SK-MEL-3; details: Homo sapiens
Description: SANGER: Inhibition of human SK-MEL-3 cell growth in a cell viability assay.

M059J = experiment: cells; type: functional, cell-based; details: Homo sapiens
Description: SANGER: Inhibition of human M059J cell growth in a cell viability assay.

DOK = experiment: cells; type: functional, cell-based; details: Homo sapiens
Description: SANGER: Inhibition of human DOK cell growth in a cell viability assay.

CAL-62 = experiment: cells; type: functional, cell-based; details: Homo sapiens
Description: SANGER: Inhibition of human CAL-62 cell growth in a cell viability assay.

SK-MEL-30 = experiment: cells; type: functional, cell-based; details: Homo sapiens
Description: SANGER: Inhibition of human SK-MEL-30 cell growth in a cell viability assay.

CAPAN-1 = experiment: cells; type: functional, cell-based; details: Homo sapiens
Description: SANGER: Inhibition of human CAPAN-1 cell growth in a cell viability assay.

NB17 = experiment: cells; type: functional, cell-based, Homo sapiens; details: Homo sapiens, NB17
Description: SANGER: Inhibition of human NB17 cell growth in a cell viability assay.

NCI-H358 = experiment: cells; type: functional, cell-based; details: Homo sapiens
Description: SANGER: Inhibition of human NCI-H358 cell growth in a cell viability assay.

IGR-1 = experiment: cells; type: functional, cell-based; details: Homo sapiens
Description: SANGER: Inhibition of human IGR-1 cell growth in a cell viability assay.

UACC-893 = experiment: cells; type: functional, cell-based; details: Homo sapiens
Description: SANGER: Inhibition of human UACC-893 cell growth in a cell viability assay.

PC-14 = experiment: cells; type: functional, cell-based; details: Homo sapiens
Description: SANGER: Inhibition of human PC-14 cell growth in a cell viability assay.

RD = experiment: cells; type: functional, cell-based; details: Homo sapiens
Description: SANGER: Inhibition of human RD cell growth in a cell viability assay.

Ca9-22 = experiment: cells; type: functional, cell-based; details: Homo sapiens
Description: SANGER: Inhibition of human Ca9-22 cell growth in a cell viability assay.

MDA-MB-157 = experiment: cells; type: functional, cell-based; details: Homo sapiens
Description: SANGER: Inhibition of human MDA-MB-157 cell growth in a cell viability assay.

HSC-2 = experiment: cells; type: functional, cell-based; details: Homo sapiens
Description: SANGER: Inhibition of human HSC-2 cell growth in a cell viability assay.

OE19 = experiment: cells; type: functional, cell-based; details: Homo sapiens
Description: SANGER: Inhibition of human OE19 cell growth in a cell viability assay.

NCI-H661 = experiment: cells; type: functional, cell-based; details: Homo sapiens
Description: SANGER: Inhibition of human NCI-H661 cell growth in a cell viability assay.

SW1990 = experiment: cells; type: functional, cell-based; details: Homo sapiens
Description: SANGER: Inhibition of human SW1990 cell growth in a cell viability assay.

CAL-33 = experiment: cells; type: functional, cell-based; details: Homo sapiens
Description: SANGER: Inhibition of human CAL-33 cell growth in a cell viability assay.

SCC-9 = experiment: cells; type: functional, cell-based; details: Homo sapiens
Description: SANGER: Inhibition of human SCC-9 cell growth in a cell viability assay.

SKG-IIIa = experiment: cells; type: functional, cell-based; details: Homo sapiens
Description: SANGER: Inhibition of human SKG-IIIa cell growth in a cell viability assay.

D-336MG = experiment: cells; type: functional, cell-based, Homo sapiens; details: Homo sapiens, D-336MG
Description: SANGER: Inhibition of human D-336MG cell growth in a cell viability assay.

NCI-H1563 = experiment: cells; type: functional, cell-based; details: Homo sapiens
Description: SANGER: Inhibition of human NCI-H1563 cell growth in a cell viability assay.

HT-29 = experiment: cells; type: functional, cell-based; details: Homo sapiens
Description: SANGER: Inhibition of human HT-29 cell growth in a cell viability assay.

Huh-7 = experiment: cells; type: functional, cell-based; details: Homo sapiens
Description: SANGER: Inhibition of human HuH-7 cell growth in a cell viability assay.

BFTC-905 = experiment: cells; type: functional, cell-based; details: Homo sapiens
Description: SANGER: Inhibition of human BFTC-905 cell growth in a cell viability assay.

## CO[C@@H]1[C@H](N(C)C(=O)c2ccccc2)C[C@H]2O[C@]1(C)n1c3ccccc3c3c4c(c5c6ccccc6n2c5c31)C(=O)NC4 [MIDOSTAURIN]
NCI-H596
  IC50: > 0.512 µM
PANC-03-27
  IC50: 0.16 µM
5637
  IC50: > 0.512 µM
COR-L279
  IC50: > 512 nM
HCC1395
  IC50: 84.3 nM
DMS-273
  IC50: 324 nM
AN3-CA
  IC50: 322 nM
HGC-27
  IC50: > 0.512 µM
NCI-H2122
  IC50: 323 nM
KOSC-2
  IC50: > 0.512 µM
G-361
  IC50: 209 nM
NCCIT
  IC50: > 512 nM
MC-IXC
  IC50: 266 nM

## O=C(NCCCNc1nc(Nc2cccc(NC(=O)N3CCCC3)c2)ncc1I)c1cccs1 [BX-795]
AU565
  IC50: > 5 µM
NUGC-3
  IC50: > 5 µM
SCC-25
  IC50: > 5 µM
NCI-H596
  IC50: > 5 µM
CP50-MEL-B
  IC50: > 5 µM
PFSK-1
  IC50: > 5 µM
NCI-H2170
  IC50: > 5 µM
PANC-03-27
  IC50: 4.21 µM
5637
  IC50: > 5 µM
NCI-H1623
  IC50: > 5 µM
NCI-H2452
  IC50: 4.83 µM
OAW-28
  IC50: > 5 µM
HCC1395
  IC50: > 5000 nM
SW1710
  IC50: 2290 nM
SK-MEL3
  IC50: > 5 µM
M059J
  IC50: 1380 nM
DOK
  IC50: 4.36 µM
DMS-273
  IC50: > 5000 nM
CAL-62
  IC50: > 5 µM
SK-MEL-30
  IC50: > 5 µM
CAPAN-1
  IC50: > 5 µM
NB17
  IC50: > 5 µM
AN3-CA
  IC50: 1640 nM
NCI-H358
  IC50: > 5 µM
IGR-1
  IC50: > 5 µM
UACC-893
  IC50: > 5 µM
PC-14
  IC50: > 5 µM
RD
  IC50: > 5 µM
Ca9-22
  IC50: 2130 nM
HGC-27
  IC50: > 5 µM
MDA-MB-157
  IC50: 1720 nM
NCI-H2122
  IC50: > 5000 nM
HSC-2
  IC50: > 5 µM
OE19
  IC50: > 5 µM
NCI-H661
  IC50: > 5 µM
SW1990
  IC50: > 5 µM
CAL-33
  IC50: > 5 µM
SCC-9
  IC50: > 5 µM
KOSC-2
  IC50: 3.07 µM
SKG-IIIa
  IC50: > 5 µM
D-336MG
  IC50: 4.3 µM
NCI-H1563
  IC50: > 5 µM
HT-29
  IC50: > 5 µM
Huh-7
  IC50: 4.82 µM
MC-IXC
  IC50: 2900 nM
BFTC-905
  IC50: 1080 nM

## Cc1ccc(-n2nc(C(C)(C)C)cc2NC(=O)Nc2ccc(OCCN3CCOCC3)c3ccccc23)cc1 [DORAMAPIMOD]
AU565
  IC50: > 10 µM
NUGC-3
  IC50: > 10 µM
SCC-25
  IC50: > 10 µM
NCI-H596
  IC50: > 10 µM
CP50-MEL-B
  IC50: > 10 µM
PFSK-1
  IC50: > 10 µM
NCI-H2170
  IC50: > 10 µM
PANC-03-27
  IC50: > 10 µM
5637
  IC50: > 10 µM
NCI-H1623
  IC50: > 10 µM
NCI-H2452
  IC50: > 10 µM
OAW-28
  IC50: > 10 µM
HCC1395
  IC50: > 10000 nM
SW1710
  IC50: > 10000 nM
SK-MEL3
  IC50: > 10 µM
M059J
  IC50: > 10000 nM
DOK
  IC50: > 10 µM
DMS-273
  IC50: > 10000 nM
CAL-62
  IC50: > 10 µM
SK-MEL-30
  IC50: > 10 µM
CAPAN-1
  IC50: > 10 µM
NB17
  IC50: > 10 µM
AN3-CA
  IC50: > 10000 nM
NCI-H358
  IC50: 7.54 µM
IGR-1
  IC50: > 10 µM
UACC-893
  IC50: > 10 µM
PC-14
  IC50: > 10 µM
RD
  IC50: > 10 µM
Ca9-22
  IC50: > 10000 nM
HGC-27
  IC50: > 10 µM
MDA-MB-157
  IC50: > 10000 nM
NCI-H2122
  IC50: > 10000 nM
HSC-2
  IC50: > 10 µM
OE19
  IC50: > 10 µM
NCI-H661
  IC50: > 10 µM
SW1990
  IC50: > 10 µM
CAL-33
  IC50: > 10 µM
SCC-9
  IC50: > 10 µM
KOSC-2
  IC50: > 10 µM
SKG-IIIa
  IC50: > 10 µM
D-336MG
  IC50: > 10 µM
G-361
  IC50: > 10000 nM
NCI-H1563
  IC50: > 10 µM
HT-29
  IC50: > 10 µM
Huh-7
  IC50: > 10 µM
MC-IXC
  IC50: > 10000 nM
BFTC-905
  IC50: > 10000 nM
